Test results published in the supplement of paper PMC11451515.

Tests used:
Details in all cases: 48 h
[1] = tested on: SEM cells; assay: AUC of viability dose-response curve (% viability x log10 dose units); higher = less sensitive
How it was run: (§1)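 Seeding of medium-adapted leukemia cells was at 500 or 1000 cells/well in 1536-well plates, followed by 48 h at 37°C with library compounds in DMSO at 11 threefold doses from 47 μM to 0.79 nM. CellTiter-Glo One luminescence was normalised per plate to DMSO and cell-free wells and fitted as a four-parameter log-logistic function of log10 dose. Area under the curve was integrated by trapezoidal rule, with curves exceeding full viability scaled and curves failing quality control removed.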

[2] = tested on: P12-Ichikawa; assay: as above
How it was run: as §1

[3] = tested on: NOMO1; assay: as above
How it was run: as §1

[4] = tested on: SEM cells; assay: cell viability relative to DMSO control; higher = less cytotoxic
How it was run: (§2)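 Viability values are per-plate percentages of DMSO wells, with background from cell-free wells. Library compounds in DMSO were pin-dosed, in an 11-point threefold series from 47 μM to 0.79 nM, onto NOMO1 or SEM (500 cells/well) or P12-Ichikawa (1000 cells/well) leukemia cells in 1536-well plates (5 μl). Those cells had been adapted for at least four passages in each medium, and CellTiter-Glo One luminescence was read after 48 h at 37°C.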

[5] = tested on: P12-Ichikawa; assay: as above
How it was run: as §2

[6] = tested on: NOMO1; assay: as above
How it was run: as §2

Cn1cc(-c2ccc3nnc(Sc4ccc5ncccc5c4)n3n2)cn1
AUC of viability dose-response curve
Details | [1] | [2] | [3]
HPLM + 10% dialyzed FBS | 457 | 460 | 463
RPMI 5 mM glucose + 10% FBS | 475 | 448 | 449
RPMI 5 mM glucose + 10% dialyzed FBS | 472 | 459 | 455

CC(C)(O)[C@H]1CC[C@@](C)([C@H]2[C@@H](O)C[C@@]3(C)[C@@H]4C[C@H](O[C@@H]5O[C@H](CO)[C@@H](O)[C@H](O)[C@H]5O)[C@H]5C(C)(C)[C@@H](O[C@@H]6OC[C@@H](O)[C@H](O)[C@H]6O)CC[C@@]56C[C@@]46CC[C@]23C)O1
cell viability [%], [4]
Details | HPLM + 10% dialyzed FBS | RPMI 5 mM glucose + 10% FBS
0.000781 µM | 118 | 119
0.00234 µM | 118 | 123
0.00702 µM | 121 | 133
0.0211 µM | 124 | 120
0.0632 µM | 128 | 124
0.19 µM | 126 | 123
0.569 µM | 129 | 130
1.71 µM | 117 | 121
5.12 µM | 89.2 | 108
15.4 µM | 109 | 105
46.1 µM | 106 | 128

AUC of viability dose-response curve
Details | [1] | [2] | [3]
HPLM + 10% dialyzed FBS | 454 | 456 | 464
RPMI 5 mM glucose + 10% FBS | 465 | 451 | 446
RPMI 5 mM glucose + 10% dialyzed FBS | 466 | 450 | 449

CO[C@@]12[C@H](COC(N)=O)C/3=C(N1C[C@@H]4N[C@H]24)/C(=O)/C(=C(N)\C3=O)C
cell viability [%]
Details | HPLM + 10% dialyzed FBS | RPMI 5 mM glucose + 10% FBS | RPMI 5 mM glucose + 10% dialyzed FBS
[4], 0.000781 µM | 123 | 91.7 | 131
[4], 0.00234 µM | 123 | 97.2 | 121
[4], 0.00702 µM | 123 | 90.7 | 124
[4], 0.0211 µM | 114 | 96.2 | 112
[4], 0.0632 µM | 115 | 90 | 121
[4], 0.19 µM | 115 | 97.1 | 112
[4], 0.569 µM | 125 | 75.5 | 116
[4], 1.71 µM | 121 | 95.3 | 125
[4], 5.12 µM | 95.7 | 86.5 | 118
[4], 15.4 µM | 108 | 92.2 | 114
[4], 46.1 µM | 81.7 | 74 | 85.3
[5], 0.000781 µM | 117 | – | –
[5], 0.00234 µM | 123 | – | –
[5], 0.00702 µM | 125 | – | –
[5], 0.0211 µM | 126 | – | –
[5], 0.0632 µM | 119 | – | –
[5], 0.19 µM | 116 | – | –
[5], 0.569 µM | 112 | – | –
[5], 1.71 µM | 121 | – | –
[5], 5.12 µM | 118 | – | –
[5], 15.4 µM | 118 | – | –
[5], 46.1 µM | 99.2 | – | –

AUC of viability dose-response curve
Details | [1] | [2] | [3]
HPLM + 10% dialyzed FBS | 453 | 472 | 449
RPMI 5 mM glucose + 10% FBS | 431 | 443 | 453
RPMI 5 mM glucose + 10% dialyzed FBS | 435 | 419 | 446

OC1=CC=C(C=C1)\C2=C\OC3=C(C(=CC(=C3)O)O)C2=O
cell viability [%]
Details | [4] | [5] | [6]
HPLM + 10% dialyzed FBS, 0.000781 µM | 95.4 | 107 | 110
HPLM + 10% dialyzed FBS, 0.00234 µM | 109 | 114 | 112
HPLM + 10% dialyzed FBS, 0.00702 µM | 96.8 | 112 | 117
HPLM + 10% dialyzed FBS, 0.0211 µM | 105 | 118 | 120
HPLM + 10% dialyzed FBS, 0.0632 µM | 108 | 114 | 116
HPLM + 10% dialyzed FBS, 0.19 µM | 119 | 116 | 122
HPLM + 10% dialyzed FBS, 0.569 µM | 112 | 119 | 124
HPLM + 10% dialyzed FBS, 1.71 µM | 79.1 | 118 | 113
HPLM + 10% dialyzed FBS, 5.12 µM | 105 | 118 | 107
HPLM + 10% dialyzed FBS, 15.4 µM | 102 | 117 | 137
HPLM + 10% dialyzed FBS, 46.1 µM | 74.8 | 122 | 117
RPMI 5 mM glucose + 10% FBS, 0.000781 µM | 93.1 | 103 | 108
RPMI 5 mM glucose + 10% FBS, 0.00234 µM | 82.2 | 104 | 111
RPMI 5 mM glucose + 10% FBS, 0.00702 µM | 89.8 | 116 | 107
RPMI 5 mM glucose + 10% FBS, 0.0211 µM | 86 | 107 | 117
RPMI 5 mM glucose + 10% FBS, 0.0632 µM | 91 | 116 | 104
RPMI 5 mM glucose + 10% FBS, 0.19 µM | 95.7 | 126 | 115
RPMI 5 mM glucose + 10% FBS, 0.569 µM | 94.2 | 116 | 108
RPMI 5 mM glucose + 10% FBS, 1.71 µM | 56.6 | 125 | 109
RPMI 5 mM glucose + 10% FBS, 5.12 µM | 91.9 | 115 | 112
RPMI 5 mM glucose + 10% FBS, 15.4 µM | 72.7 | 115 | 123
RPMI 5 mM glucose + 10% FBS, 46.1 µM | 36.2 | 85.9 | 110
RPMI 5 mM glucose + 10% dialyzed FBS, 0.000781 µM | 94.5 | 103 | 94.7
RPMI 5 mM glucose + 10% dialyzed FBS, 0.00234 µM | 103 | 105 | 113
RPMI 5 mM glucose + 10% dialyzed FBS, 0.00702 µM | 104 | 108 | 99.8
RPMI 5 mM glucose + 10% dialyzed FBS, 0.0211 µM | 102 | 112 | 110
RPMI 5 mM glucose + 10% dialyzed FBS, 0.0632 µM | 119 | 119 | 118
RPMI 5 mM glucose + 10% dialyzed FBS, 0.19 µM | 115 | 114 | 117
RPMI 5 mM glucose + 10% dialyzed FBS, 0.569 µM | 115 | 120 | 107
RPMI 5 mM glucose + 10% dialyzed FBS, 1.71 µM | 65.1 | 116 | 108
RPMI 5 mM glucose + 10% dialyzed FBS, 5.12 µM | 92.6 | 95 | 118
RPMI 5 mM glucose + 10% dialyzed FBS, 15.4 µM | 101 | 113 | 115
RPMI 5 mM glucose + 10% dialyzed FBS, 46.1 µM | 59 | 69.5 | 103

AUC of viability dose-response curve
Details | [1] | [2] | [3]
HPLM + 10% dialyzed FBS | 452 | 466 | 459
RPMI 5 mM glucose + 10% FBS | 395 | 471 | 455
RPMI 5 mM glucose + 10% dialyzed FBS | 433 | 468 | 473

COc1ccc(C(=O)N2CCCC2=O)cc1
AUC of viability dose-response curve
Details | [1] | [2] | [3]
HPLM + 10% dialyzed FBS | 449 | 447 | 447
RPMI 5 mM glucose + 10% FBS | 422 | 456 | 456
RPMI 5 mM glucose + 10% dialyzed FBS | 461 | 439 | 467
